From publication PMC5317004 (Scientific Reports, 2017)

Legend:
α7-nAChR = conditions: cited from earlier work
chimeric α7-GluClβR = assay: IVM pre-application before ACh, inhibition of ACh-elicited currents (whole-cell patch clamp); type: cell-based, chick nAChR α7 / C. elegans GluClβ
Protocol: Data were extracted from experiments performed as in panel A. Since the currents could not be recovered following an exposure to IVM, each cell was exposed only to one concentration of IVM. […] The curve was fitted to the averaged data points with a non-linear regression using the Hill equation 2 (Eq. 2; r^2 = 0.996). Error bars correspond to SEM. Total of 41 cells were used to obtain the averaged points. Recordings were performed at −60 mV.
Since the ACh-evoked response could not be recovered after exposure of the cell to IVM, we had to perform the above application protocol in different cells for each IVM concentration separately. By that, we obtained the inhibition graph shown in the inset of Fig. 3.
In the case of inhibition of the current response, curves were fitted to the data points by a nonlinear regression using the Hill equation 2, […]
Supplementary Information […]
Supplementary Materials and Methods […]
DNA construct and preparation of cells for electrophysiological experiments The cDNA encoding the α7-GluClβ chimeric subunit was generated as described previously3, and was cloned into a pcDNA3.1 vector.
Chinese hamster ovary cells (CHO-K1, ATCC via Biological Industries Israel, Beit Haemek Ltd.) were cultured as performed previously2 in Dulbecco 's Modified E agle Med iu m (DMEM) containing 10% fetal calf serum (Biological Industries Israel Beit Haemek Ltd.), 2 mM glutamax, 100 Units/ml penicillin G and 100 μg/ml streptomycin, and grown in 5% CO2 at 37°C under 90-95% hu midity . CHO cells were seeded on glass coverslips (13-mm diameter) placed in a 24-multiwell plate. For the expression of the α7-GluClβR, cells were transiently transfected with the pcDNA3.1 plasmid containing the receptor’s ORF (200-600 ng per well) using transit-LT1 transfection reagent (Mirus, USA), according to the manufacturer’s protocol. pIRES-CD8 plas mid (200 ng per well) was also added to enable visualization of the ex pressing cells by beads coated with anti-CD8 antibodies (Invitrogen). […]
Reagent (Roche Life Science). Recordings were performed 48-72 hours following transfection.
Whole-cell patch clamp recordings
Recordings were performed in the aforementioned CHO cells, as previously described1,2. Whole-cell patch clamp experiments were performed with normal external solution (NES) contained (in millimolar): 140 NaCl, 2.8 KCl, 2 CaCl2, 2 MgCl2, 10 glucose and 10 HEPES, adjusted to pH 7.35 with NaOH (310 mOsM). The pipette solution contained […]
(in millimolar): 130 KCl, 4 MgCl2, 4 Na2ATP, 1 EGTA and 10 HEPES, adjusted to pH 7.35 with KOH (290 mOsM). The osmolarity of these solutions was maintained by adding sucrose.
The electrode resistance was 6-10 MΩ when filled with the pipette solution. External solutions were applied onto the cell by using the VC-77SP fast-step system (Warner Instruments, CT, USA) combined with N2 pressure of 3-4 psi to produce laminar flow of the external solution onto the patched cell. All measurements were performed at 25 °C. The currents w ere measured with an Axopatch 200B patch-clamp amplifier (Molecular Devices, Sunnyvale, CA) and a Digidata 1440A interface (Molecular Devices). Acquisition of recording data was performed at 2.5 kHz and recordings were low-pass filtered at 1 kHz, through a four-pole Bessel filter.
The pClamp 10 software (Molecular Devices) was used for data acquisition.
To determine the chloride conductance and the reversal potential during current decline, the following procedure was employed. […]

CC[C@H](C)[C@H]1O[C@]2(CC[C@@H]1C)C[C@@H]1C[C@@H](C/C=C(\C)[C@@H](O[C@H]3C[C@H](OC)[C@@H](O[C@H]4C[C@H](OC)[C@@H](O)[C@H](C)O4)[C@H](C)O3)[C@@H](C)/C=C/C=C3\CO[C@@H]4[C@H](O)C(C)=C[C@@H](C(=O)O1)[C@]34O)O2 [IVM, Ivermectin]
decrease of the ACh-EC50 by IVM (α7-nAChR): 20 fold
ACh-elicited response after IVM pre-application, percent IP3/IP2 (chimeric α7-GluClβR; 5 μM IVM for 10 sec, then 50 μM ACh 0.5 sec, relative to response after DMSO pre-application, N = 8): 16 ± 5.2%
ACh-elicited response after IVM and long-term wash, percent IP4/IP2 (chimeric α7-GluClβR; 5 μM IVM for 10 sec, wash > 2 min, 50 μM ACh, N = 5): 4.4 ± 1.3%
Hill coefficient (IVM inhibition curve) (chimeric α7-GluClβR; IVM applied prior to 50 μM ACh): ~3
IC50 (chimeric α7-GluClβR; IVM applied prior to 50 μM ACh, −60 mV, 41 cells): 156 nM
Ki (chimeric α7-GluClβR; IVM applied prior to activation by ACh, IC50 taken as Ki for non-competitive inhibition, read-out: inhibition constant (Ki)): 156 nM
